The results in this text go back to patent US20200305435A1, “SYNERGISTIC COMBINATION OF BIOCIDES” (LONZA LLC, priority 2016, published 2020).

Assay in all cases: Minimum inhibitory concentration, microtitre plate doubling dilutions
Format in all cases: cell-based

The test system of one assay is Escherichia coli. The following applies: biocide alone, visual growth after 24 hours at 37° C., read-out: MIC versus organism E.c. The method, then:
(§1) Bacteria were grown to stationary phase (18 h) in nutrient broth (approximately 10^9 organisms per ml). A 0.1% (v/v) inoculum was used to seed fresh medium and 100 μl of this was added to each well of a microtitre plate, except for the first well which contained 200 μl. Using doubling dilutions, the concentration of each antimicrobial was varied in each well along the ordinate axis. The presence or absence of growth was determined by visual inspection after 24 hours incubation at 37° C.

The next assay has as its system Ps.a. The following applies: Pseudomonas aeruginosa; biocide alone; read-out: MIC versus organism Ps.a. How it is done: as §1
A further assay has as its system Staphylococcus aureus. The following applies: biocide alone, visual growth after 24 hours at 37° C., read-out: MIC versus organism S.a. How it is done:
as §1

Another assay relates to Aspergillus brasiliensis. The following applies: biocide alone, visual growth after 48 hours at 25° C., read-out: MIC versus organism A.b. The method, then: (§2) Fungi were grown on malt agar for 7 days at 25° C. to form a mycelial mat and the spore suspension harvested using 10 ml physiological saline (0.85% (w/v) NaCl). This was used as an inoculum as above. The presence or absence of growth was determined by visual inspection after 48 hours incubation at 25° C.

The next assay deals with C. albicans. The following applies: Candida albicans; biocide alone; read-out: MIC versus organism C.a. How it is done: as §2

By MIC is commonly meant the smallest concentration in the dilution series that meets the test's criterion for growth inhibition. In the case of `N=C(NCCCCCCNC(=N)NC(=N)Nc1ccc(Cl)cc1)NC(=N)Nc1ccc(Cl)cc1` [Spectradyne, Chlorhexidine gluconate], the MIC in the assay on Escherichia coli came out at 2 µg/mL; with Ps.a, 4 µg/mL; in the assay with Staphylococcus aureus, 1 µg/mL; with Aspergillus brasiliensis, 62.5 µg/mL; in the assay with C. albicans, 16 µg/mL.
